Assay results taken from US20240335404A1, “SUBSTITUTED ESTERS CONTAINING POLYOLS AND SACCHARIDES FOR TREATING HEPATOTOXICITY AND FATTY LIVER DISEASES” (SINEW PHARMA INC., priority 2015, published 2024).

Tested on: fatty liver
Test: High fat diet-induced fatty liver in B6 mice
Type: in vivo
Details: HFD mice; for GSH / Gpx / Grd / SOD: liver; for ALT / AST / TC in liver / TG in liver: administration period of 4 weeks; for liver TC / liver TG: 4 or 8 weeks; for ALT and AST values: compounds administered separately
Method: More than four mice were used in each group of the pre-test, while more than twelve mice were used in each group of the confirmatory test. […] The animal test was carried out according to the guideline for animal experiment of National Health Research Institutes. […] The weight of mice was recorded once a week. The tested animals were grouped randomly into Blank, High Fat Diet control (HFD), Positive Control (PS), and Test group. The animals of Blank were fed with normal feed. The animals of HFD were fed with high fat feed. […] The animals of Test group were fed with high fat feed, and additionally fed with test compounds by a tube. The animals of Blank were fed casually with normal feed for 12 weeks, while the animals of HFD, PS, and Test group were fed casually with high fat feed for 12 weeks. After 8 weeks of feeding, the animals of Blank and HFD were fed with deionized water by a tube once a day; the animals of PS were fed with silymarin by a tube once a day; and the animals of Test Group were fed with test compounds by a tube once a day for a duration of 4 or 8 weeks. Before testing and in the eighth, twelfth, and sixteenth week after testing, blood was collected from the cheek or the heart. At the end of testing, all mice were weighted and then sacrificed, and blood was collected from the cheek or the heart simultaneously. The blood specimens of mice rested at room temperature for one hour to clot, and then the serum was separated by centrifugation in a refrigeration centrifuge at 15,700×g at 4° C. for 5 minutes. Afterwards, biochemical indices of liver function, including aspartate transaminase (AST), alanine aminotransferase (ALT), triglyceride (TG), total cholesterol (TCHO/TC), low-density lipoprotein cholesterol (LDL-C), and high-density lipoprotein cholesterol (HDL-C), were detected by the automatic blood biochemistry analyzer. In addition, abdominal fat and liver specimens were taken from the abdomens of sacrificed mice and weighted to compare the weight of fat and liver and obtain the ratio of liver weight to body weight. […] The cut sections proceeded with H&E staining for histopathological observation. Moreover, the rest of the liver was frozen for preservation and detection of the contents of triglyceride and total cholesterol in the liver. Furthermore, the liver function of animals of each group were analyzed by Galactose Single Point Method, which was recognized and recommended for quantification of remaining liver function in clinical use by U.S. FDA and Ministry of Health and Welfare, Taiwan. […] One hour after the administration, about 0.5 ml of whole blood was taken by using a filter paper to evaluate liver function of mice. The higher the value of GSP was, the worse the remaining liver function would be. (FDA: “Guidance for Industry: Pharmacokinetics in Patients with Impaired. Hepatic Function-Study Design, Data Analysis and Impact on Dosing and. Labeling. 2003. At the end of the test, all mice were sacrificed. […] Afterwards, xylene was replaced with hot paraffin solution. At last, the tissue was embedded with paraffin solution. The finished paraffin specimen was cut into […] paraffin sections by the microtome. The sections were pasted on clean slides, dried at 37° C., and then stained by H&E staining. In order to observe the changes of lesion, fat accumulation, necrosis, or fibrosis in liver cells when there was an ongoing liver damage, liver tissues were H&E stained to evaluate the degree of liver fat accumulation. All the histopathological sections were cut from the same position on the largest right lobe of liver for eliminating bias in subjective observation, and then subject to pathological staining. As for the assessment of semi-quantitative analysis in pathology, it had to be confirmed by a physician or a veterinary pathologist who conducted a double-blind analysis to score (NAS score) and compare all the sections without knowing the test design. […]

[1] = 1.5 mg/kg, test period of 4 weeks
[2] = 4.5 mg/kg, test period of 4 weeks
[3] = 7.5 mg/kg, test period of 4 weeks

Q: Which results are given for OC[C@@H](O)[C@@H](O)[C@H](O)[C@H](O)CO [Mannitol]?
A: weight of abdominal fat: reduce the weight of abdominal fat in animals significantly; GSH [1]: 1502.5 ± 276.9 U/L; Gpx [1]: 2580.0 ± 555.2 U/L; Grd [1]: 95.3 ± 22.1 U/L; SOD [1]: 367.3 ± 35.6 U/L; GSH [2]: 1605.1 ± 305.9 U/L; Gpx [2]: 3423.3 ± 547.8 U/L; Grd [2]: 110.1 ± 18.4 U/L; SOD [2]: 429.2 ± 85.2 U/L; GSH [3]: 2147.7 ± 459.1 U/L; Gpx [3]: 3738.3 ± 665.1 U/L; Grd [3]: 117.6 ± 32.0 U/L; SOD [3]: 462.8 ± 52.8 U/L; Abdominal fat weight (1.5 mg/kg): 2.0 ± 0.3 g; Increase of body weight (1.5 mg/kg): 10.9 ± 7.4 g; Liver weight (1.5 mg/kg): 1.4 ± 0.2 g; ALT (1.5 mg/kg): 40.8 ± 11.4 U/L; AST (1.5 mg/kg): 187.2 ± 142.1 U/L; TC in liver (1.5 mg/kg): 3.4 ± 0.6 mg/g liver; TG in liver (1.5 mg/kg): 61.8 ± 32.6 mg/g liver; Abdominal fat weight (4.5 mg/kg): 2.7 ± 0.3 g; Increase of body weight (4.5 mg/kg): 11.1 ± 7.7 g; Liver weight (4.5 mg/kg): 1.4 ± 0.2 g; ALT (4.5 mg/kg): 44.5 ± 15.9 U/L; AST (4.5 mg/kg): 107.6 ± 54.3 U/L; TC in liver (4.5 mg/kg): 7.2 ± 2.8 mg/g liver; TG in liver (4.5 mg/kg): 71.5 ± 45.5 mg/g liver; Abdominal fat weight (7.5 mg/kg): 2.4 ± 0.3 g; Increase of body weight (7.5 mg/kg): 10.3 ± 8.5 g; Liver weight (7.5 mg/kg): 1.4 ± 0.1 g; ALT (7.5 mg/kg): 25.0 ± 10.8 U/L; AST (7.5 mg/kg): 63.3 ± 7.7 U/L; TC in liver (7.5 mg/kg): 4.7 ± 1.2 mg/g liver; TG in liver (7.5 mg/kg): 53.8 ± 24.4 mg/g liver; NAS [3]: 1.7 ± 0.8 mg/g liver; reduction in ALT value (4-week treatment, p<0.005): about 64%; reduction in AST value (4-week treatment, p<0.005): about 60%; liver TC: reduce TC in liver significantly; liver TG: reduce TG in liver significantly; liver antioxidant activity (4 weeks): improve antioxidant activity significantly; liver damage, NAS (4 weeks): reduce liver damage significantly; ALT and AST values: reduce ALT and AST values significantly; liver tissue sections, H&E (treated for 4 weeks, FIG. 5): large vesicular fat droplets within liver cells in liver tissue section were significantly reduced

Q: How did the “weight of abdominal fat” value turn out when OC[C@H]1O[C@H](O[C@]2(CCl)O[C@H](CCl)[C@@H](O)[C@@H]2O)[C@H](O)[C@@H](O)[C@H]1Cl [Sucralose] was run?
A: reduce the weight of abdominal fat in animals significantly

Q: What about the GSH [1] of the same molecule?
A: 1448.0 ± 281.5 U/L

Q: What about the Gpx [1] of the same molecule?
A: 2995.0 ± 651.1 U/L

Q: What about the Grd [1] of the same molecule?
A: 100.0 ± 18.6 U/L

Q: What about the SOD [1] of the same molecule?
A: 373.0 ± 50.4 U/L

Q: What about the GSH [3] of the same molecule?
A: 1609.1 ± 201.1 U/L

Q: What about the Gpx [3] of the same molecule?
A: 3334.0 ± 377.7 U/L

Q: And the Grd [3]?
A: 90.4 ± 17.2 U/L

Q: And the SOD [3]?
A: 399.0 ± 34.5 U/L

Q: What about the Abdominal fat weight (1.5 mg/kg) of the same molecule?
A: 2.1 ± 0.6 g

Q: What about the “Increase of body weight” value (1.5 mg/kg) of the same molecule?
A: 17.0 ± 5.6 g

Q: And the Liver weight (1.5 mg/kg)?
A: 1.5 ± 0.2 g

Q: And the ALT (1.5 mg/kg)?
A: 30.9 ± 16.8 U/L

Q: What about the AST (1.5 mg/kg) of the same molecule?
A: 127.0 ± 31.2 U/L

Q: And the TC in liver (1.5 mg/kg)?
A: 3.0 ± 0.9 mg/g liver

Q: What about the TG in liver (1.5 mg/kg) of the same molecule?
A: 68.9 ± 37.5 mg/g liver

Q: And the Abdominal fat weight (7.5 mg/kg)?
A: 2.4 ± 0.3 g

Q: And the “Increase of body weight” value (7.5 mg/kg)?
A: 8.3 ± 5.4 g

Q: What about the Liver weight (7.5 mg/kg) of the same molecule?
A: 1.4 ± 0.1 g

Q: What about the ALT (7.5 mg/kg) of the same molecule?
A: 32.3 ± 10.1 U/L

Q: And the AST (7.5 mg/kg)?
A: 74.3 ± 18.6 U/L

Q: What about the TC in liver (7.5 mg/kg) of the same molecule?
A: 5.0 ± 0.9 mg/g liver

Q: What about the TG in liver (7.5 mg/kg) of the same molecule?
A: 56.8 ± 20.0 mg/g liver

Q: What about the “liver TC” value of the same molecule?
A: reduce TC in liver significantly

Q: What about the “liver TG” value of the same molecule?
A: reduce TG in liver significantly

Q: And the “liver antioxidant activity” value (4 weeks)?
A: improve antioxidant activity significantly

Q: What about the “ALT and AST values” of the same molecule?
A: reduce ALT and AST values significantly
